Test results reported in patent EP3138565A1, “METHOD FOR TREATING A TUMOUR DISEASE AND METHOD FOR SELECTIVELY INHIBITING TUMOUR CELL GROWTH USING A QUINOXALINE-1,4-DIOXIDE DERIVATIVE” (OOO "A-Laboratory", priority 2014, dated 2015).
Values belong to the compound of their own block, whether it stands above or below them.

Assays:
[1] = tested on: normal human embryo lung fibroblasts (HELF); assay: MTT test, cytotoxicity on non-tumor cells (selectivity control); type: cell-based; settings: HELF; non-tumor human embryo lung fibroblasts, MTT test; read-out: IC50, µM HEFL
Procedure: (§1) Comparative study of cytotoxicity of 6,7-difluoro-3-phenyl-2-cyanoquinoxaline 1,4-dioxide (compound 7 obtained according to a method described in the Example 1) and the previously known 6,7-nonsubstituted analogue 6 (obtained earlier by a method described by [Hu Y. etal. Molecules 2012, 17, 9683]) was performed in in vitro tests on cells of human solid tumors, as well as normal human embryo lung fibroblasts (HELF) to control selectivity. IC50 values were determined by the MTT test according to a protocol described in the literature [Mossman T.J. Immunol. Methods, 1983, 65, 55]. Table 1. Antiproliferative activity (IC50, µM) of quinoxaline 1,4-dioxides 6 and 7 with respect to human solid tumor cells and non-tumor human embryo lung fibroblasts (HELF)

K562 leukemic cells = assay: Antiproliferative activity on leukemia cells; type: cell-based; settings: Homo sapiens
Procedure: (§2) Comparative study of cytotoxicity of 6,7-difluoro-3-phenyl-2-cyanoquinoxaline 1,4-dioxide (compound of formula 7), which is the subject if the present invention, was performed also on a culture of tumor […] leukemia K562 cells and its resistant subline K562/4 expressing p-glycoprotein. Expression of such ATP-dependent transporters on cell surface is one of the most common mechanisms of the multidrug resistance development in tumors [Shtil A.A., Grinchuk T.M., et. al. Int. J. Oncol., 2000, 17, 387]. Data of these studies, including the IC50 values of reference compounds, the previously described quinoxaline 1,4-dioxide of formula 6, and doxorubicin, as well as the resistance index value (RI is the ratio between the IC50 values of the K562/4 subline and IC50 of the K562 line) are presented in Table 2.

HCT116 = assay: MTT test, antiproliferative activity; type: cell-based, human; settings: for IC50: HCT-116, HCT116 human solid tumor cells, MTT test
Procedure: as §1

K562/4 = assay: Antiproliferative activity on multidrug-resistant subline expressing p-glycoprotein; type: cell-based; settings: for IC50: Homo sapiens, K562/4 subline with multidrug resistance caused by p-gp expression; for RI, resistance index: RI = IC50(K562/4)/IC50(K562)
Procedure: as §2

MSF7 = assay: MTT test, antiproliferative activity; type: cell-based; settings: MSF7 human solid tumor cells
Procedure: as §1

[2] = MTT test, cytotoxicity on non-tumor cells (selectivity control); type: cell-based; settings: tumor cells of different genesis vs non-tumor human fibroblasts; read-out: cytotoxicity with respect to tumor cells higher than against the non-tumor human fibroblast cells (selectivity)
Procedure: as §1

[3] = tested on: human tumor cells of various genesis; assay: Apoptosis induction in tumor cells under normoxia; type: cell-based; settings: submicromolar concentrations, all studied types of human tumor cells
animal tumor models = assay: Antitumor effect on animal tumor models; type: in vivo; settings: no data given

SMILES: N#Cc1c(-c2ccccc2)[n+]([O-])c2ccccc2[n+]1[O-] [Compound 6, reference compound]
IC50 [1]: 25.2 ± 5.1 µM | IC50 (K562 leukemic cells): 5.2 ± 0.78 µM | IC50 (HCT116): 8.4 ± 0.8 µM | IC50 (K562/4): 33 ± 4 µM | RI, resistance index (K562/4): 6.3 | IC50 (MSF7): 15.5 ± 0.98 µM

IC50 (K562 leukemic cells): 0.18 ± 0.03 µM | IC50 (K562/4): 18.4 ± 2.2 µM
SMILES: COc1cccc2c1C(=O)c1c(O)c3c(c(O)c1C2=O)C[C@@](O)(C(=O)CO)C[C@@H]3O[C@H]1C[C@H](N)[C@H](O)[C@H](C)O1 [Doxorubicin, reference compound]
RI, resistance index (K562/4): 102.2

SMILES: N#Cc1c(-c2ccccc2)[n+]([O-])c2cc(F)c(F)cc2[n+]1[O-] [Compound 7, 6,7-difluoro-3-phenyl-2-cyanoquinoxaline 1,4-dioxide]
selectivity ratio [2]: 200 to 300 | IC50 [1]: 44 ± 1.9 µM | apoptosis induction [3]: induced apoptosis | IC50 (K562 leukemic cells): 0.15 ± 0.02 µM | IC50 (HCT116): 0.6 ± 0.03 µM | growth-inhibiting concentrations relative to the closest analogue of formula 6 (HCT116; all tested tumor cell lines): two orders of magnitude lower | IC50 (K562/4): 0.3 ± 0.05 µM | activity toward K562/4 cells surpassing analogue of formula 6 (K562/4; K562/4, versus closest analogue of formula 6): 100 fold | activity toward K562/4 cells surpassing doxorubicin (K562/4; K562/4, versus reference preparation doxorubicin): ~50 fold | RI, resistance index (K562/4): 2.0 | resistance index (RI) lower than doxorubicin (K562/4; RI of compound versus RI of doxorubicin): ~50 fold | IC50 (MSF7): 0.1 ± 0.02 µM | antitumor effect (animal tumor models): reliable antitumor effect
